Laboratory results as given in PMC3585277, “The C-Terminal Region Mesd Peptide Mimics Full-Length Mesd and Acts as an Inhibitor of Wnt/β-Catenin Signaling in Cancer Cells” (PLoS ONE, 2013).

Legend:
PC-3 cells [1] = assay: BrdU proliferation ELISA, PC-3 cells; type: cell-based, human; details: PC-3, peptide 2 µM, 7 days in 2% FBS then 2 days in 10% FBS; n = 6
Method: (§1) BrdU incorporation into proliferating cells was analyzed by a cell proliferation ELISA BrdU kit (colorimetric, Roche) according to the manufacturer's instructions.

MDA-MB-231 tumor = details: cited from earlier work
HS578T cells [2] = assay: BrdU proliferation ELISA, HS578T cells; type: cell-based, human; details: peptide 2 µM, 7 days in 2% FBS then 2 days in 10% FBS, n = 6
Method: as §1

HS578T cells [3] = assay: Cell viability, Cell Titer Glo Assay, HS578T cells; type: cell-based, human
Method: (§2) Cell viability was measured in 96-well plates by the Cell Titer Glo Assay (Promega), which is a luminescent assay that is an indicator of live cells as a function of metabolic activity and ATP content.

LRP5 = assay: 125I-Mesd ligand binding assay, LRP5-transfected ldl-7 cells; details: for block of Mesd protein binding to LRP5 at the cell surface / concentration at which inhibitory ability on Mesd binding was displayed: 4 h at 4°C; for concentration at which inhibitory ability on Mesd binding was displayed / inhibitory concentration relative to that required for mMesd (155–191): LRP5-expressing cells
Method: (§3) Ligand binding assay was carried out exactly as previously described. Cells (2×10^5) were seeded into 12-well dishes 1 day prior to assay. Ligand-binding buffer (minimal Eagle's medium containing 0.6% BSA with a different concentration of radioligand, 0.6 ml/well) was added to cell monolayers, in the absence or the presence of unlabeled Mesd or its peptide, followed by incubation for 4 h at 4°C. Thereafter, overlying buffer containing unbound ligand was removed, and cell monolayers were washed and lysed in low-SDS lysis buffer (62.5 mM Tris-HCl pH 6.8, 0.2% SDS, 10% v/glycerol) and counted.

LRP6 = assay: 125I-Mesd ligand binding assay, LRP6-transduced HT1080 cells; design: species or system human; details: for block of Mesd protein binding to LRP6 at the cell surface / concentration at which inhibitory ability on Mesd binding was displayed: 125I-Mesd 5 nM, 4 h at 4°C; for block of Mesd protein binding to LRP6 at the cell surface: LRP6-transduced HT1080 cells; for concentration at which inhibitory ability on Mesd binding was displayed / inhibitory concentration relative to that required for mMesd (155–191): LRP6-expressing cells
Method: as §3

Wnt/β-catenin signaling [4] = assay: Super8XTOPFlash luciferase reporter assay, HS578T cells; type: cell-based, human; details: 24 h treatment
Method: (§4) Cells were plated into 24-well plates. After overnight culture, the cells were transiently transfected with the TOPFlash or Super8XTOPFlash luciferase construct, β-galactosidase-expressing vector, and pcDNA3.1C-Myc-hLRP5, pCS-Myc-hLRP6 or control vector. After 24 h incubation, cells were treated with Mesd, Mesd peptide, Rspo1 and Wnt3A CM. Cells were then lysed 24 h later and both luciferase and β-galactosidase activities were determined. The luciferase activity was normalized to the β-galactosidase activity.

HS578T cells [5] = assay: Cell proliferation assay (trypan blue exclusion), HS578T cells; type: cell-based, human; details: DMEM 2% FBS, 10 days, mMesd 2 µM, hMesd (160–197) 4 µM, control peptide 4 µM, n = 3
Method: (§5) Cells were seeded into 6-well plates at a density of 10000 cells/well. RPMI-1640 or DMEM medium containing 2% FBS was used as assay media. After 16 h incubation, the cells were treated with Mesd or its peptide for 10 days. Media were changed every other day. At the end of the experiment, cells were harvested and counted using the trypan blue exclusion assay.

PC-3 cells [6] = assay: Cell viability, Cell Titer Glo Assay, PC-3 cells; type: cell-based, human; details: Mesd 2 µM or hMesd (160–197) 2 µM with Adriamycin 0.5 µM, 2 days after pre-treatment
Method: as §2

Wnt/β-catenin signaling [7] = assay: Western blot / GST-E-cadherin binding assay of Wnt/β-catenin signaling markers, HS578T cells; type: cell-based, human; details: 24 h treatment
Method: (§6) Cells in 6-well plates were lysed in 0.5 ml of lysis buffer (phosphate-buffered saline containing 1% Triton X-100 and 1 mM PMSF) at 4°C for 10 min. Equal quantities of protein were subjected to SDS-PAGE under reducing conditions. Following transfer to immobilon-P transfer membrane, successive incubations with anti-HA, anti-Wnt10b, anti-β-catenin, anti-OPG, anti-phosphorylated-LRP6, anti-LRP6, anti-Axin2, anti-Cyclin D1 or anti-actin, and horseradish peroxidase-conjugated secondary antibody were carried out for 60–120 min at room temperature. The immunoreactive proteins were then detected using the ECL system. Films showing immunoreactive bands were scanned by Kodak Digital Science DC120 Zoom Digital Camera.
(§7) The GST-E-cadherin binding assay was carried out exactly as previously described (9). Uncomplexed cytosolic free β-catenin present in 100 µg of total cell lysate was subjected to SDS-PAGE and detected using the monoclonal antibody to β-catenin.

Wnt/β-catenin signaling [8] = assay: Super8XTOPFlash luciferase reporter assay, HEK293 cells (Figure S1, S2); type: cell-based, human; details: 24 h, peptide 8 µM in Figure S1
Method: as §4
Supplementary file pone.0058102.s001.tif: Figure S1 Human Mesd C-terminal region peptide blocks Wnt/β-catenin signaling induced by LRP6, Wnt3A and Rspo1 in HEK293 cells. […] The luciferase activity was then measured 24 h later with normalization to the activity of the β-galactosidase. […]
Supplementary file pone.0058102.s002.tif: Figure S2 Mesd blocks Wnt1- or Wnt10b-induced Wnt/β-catenin signaling in HEK293 cells. […] The luciferase activity was then measured 24 h later with normalization to the activity of the β-galactosidase. […] The levels of cytosolic free β-catenin, and total cellular Wnt1, Wnt10b, β-catenin, LRP6, Axin2, cyclin D1 and phosphorylated LRP6 were then analyzed by Western blotting. […]

Wnt/β-catenin signaling [9] = assay: Western blot / GST-E-cadherin binding assay of Wnt/β-catenin signaling markers, PC-3 cells; type: cell-based, human
Method: as §6, §7

Wnt/β-catenin signaling [10] = assay: Super8XTOPFlash luciferase reporter assay, PC-3 cells; type: cell-based, human; details: 24 h treatment
Method: as §4

PC-3 cells [11] = assay: Cell proliferation assay (trypan blue exclusion), PC-3 cells; type: cell-based, human; details: PC-3, RPMI-1640 2% FBS, 10 days; mMesd 2 µM, hMesd (160–197) 4 µM, control peptide 4 µM; n = 3
Method: as §5

OPG expression = assay: Western blot of OPG expression in C2C12 cells; type: cell-based, mouse; details: 48 h, mMesd 0.5 µM
Method: as §6

Wnt/β-catenin signaling [12] = assay: TOPFlash luciferase reporter assay, LRP5-transfected HEK293 cells; type: cell-based, human; details: Wnt3A CM 5%, Rspo1 40 ng/ml, mMesd 2 µM, peptide at indicated concentrations, 24 h, normalized to β-galactosidase
Method: as §4

LRP6 phosphorylation = assay: Western blot of phosphorylated LRP6 in C2C12 cells; type: cell-based, mouse; details: C2C12, Wnt3A CM 5%, 6 h; mMesd 0.5 µM, peptide at indicated concentrations
Method: as §6

Wnt/β-catenin signaling [13] = assay: TOPFlash luciferase reporter assay, LRP6-transfected HEK293 cells; type: cell-based, human; details: Wnt3A CM 5%, Rspo1 40 ng/ml, mMesd 2 µM, peptide at indicated concentrations, 24 h, normalized to β-galactosidase
Method: as §4

[14] = 125I-Mesd 5 nM, peptides at indicated concentrations, LRP5-transfected ldl-7 cells, Figure 1C
[15] = peptides at indicated concentrations, Figure 1C

Mesd C-terminal region peptide: generic wording; in Figure 7B it is hMesd (160–197); in cited work (ref 13) the peptide is not specified (KGGGSKEKNKTKQDKGKKKKEGDLKSRSSKEENRAGNK)
BrdU incorporation (PC-3 cells [1]): decreased BrdU incorporation
MDA-MB-231 tumor growth (MDA-MB-231 tumor): suppressed
BrdU incorporation (HS578T cells [2]): decreased BrdU incorporation

COc1cccc2c1C(=O)c1c(O)c3c(c(O)c1C2=O)C[C@@](O)(C(=O)CO)C[C@@H]3O[C@H]1C[C@H](N)[C@H](O)[C@H](C)O1 [Adriamycin, reference compound]
inhibition of cell viability (HS578T cells [3]; single agent: Mesd protein 2 µM or Adriamycin 0.5 µM, Mesd 4 days pre-treatment, then 2 days, n = 4): 69%

mMesd (165–182): Mesd peptide based on the mouse Mesd C-terminal region sequence (LVSQDRCAEVTLEGQMYP; UniProt Q9ERE7 165-182, looked up, fragment)
block of Mesd protein binding to LRP5 at the cell surface (LRP5; [14]): unable to block
block of Mesd protein binding to LRP6 at the cell surface (LRP6; [15]): unable to block

KGGGSKEKNKTKQDKGKKKKEGDLKSRSSKEENRAGNK [hMesd (160–197), human Mesd C-terminal region peptide, corresponding to mMesd (155–191)]
Adriamycin-induced cytotoxicity (HS578T cells [3]; Mesd 2 µM or hMesd (160–197) 2 µM with Adriamycin 0.5 µM, 2 days after pre-treatment): potentiate
Wnt reporter luciferase activity induced by Wnt1 (Wnt/β-catenin signaling [4]; HS578T transfected with Wnt1 plasmid): significantly repress
Wnt reporter luciferase activity (Wnt/β-catenin signaling [4]; HS578T, endogenous signaling, indicated concentrations): significantly repressed
cell proliferation (HS578T cells [5]): displayed inhibitory effect
Adriamycin-induced cytotoxicity (PC-3 cells [6]): potentiate
levels of cytosolic free β-catenin, LRP6 phosphorylation, Axin2 and cyclin D1 (Wnt/β-catenin signaling [7]; HS578T): greatly decreased
levels of cytosolic free β-catenin, LRP6 phosphorylation, Axin2 and cyclin D1 (Wnt/β-catenin signaling [7]; Wnt1-expressing HS578T): greatly decreased
Wnt/β-catenin signaling induced by LRP6, Wnt3A, Rspo1, Wnt1 and Wnt10b (Wnt/β-catenin signaling [8]): displayed inhibitory effects
levels of cytosolic free β-catenin, LRP6 phosphorylation, Axin2 and cyclin D1 (Wnt/β-catenin signaling [9]; PC-3, 24 h treatment): greatly decreased
levels of cytosolic free β-catenin, LRP6 phosphorylation, Axin2 and cyclin D1 (Wnt/β-catenin signaling [9]; Wnt1-expressing PC-3, 24 h treatment): greatly decreased
Wnt reporter luciferase activity (Wnt/β-catenin signaling [10]; PC-3, endogenous signaling, indicated concentrations): significantly repressed
Wnt reporter luciferase activity induced by Wnt1 (Wnt/β-catenin signaling [10]; PC-3 transfected with Wnt1 plasmid): significantly repress
cell proliferation (PC-3 cells [11]): displayed inhibitory effect

mMesd (155–173): Mesd peptide based on the mouse Mesd C-terminal region sequence (GSYAWEIKDFLVSQDRCAE; UniProt Q9ERE7 155-173, looked up, fragment)
block of Mesd protein binding to LRP5 at the cell surface (LRP5; [14]): inhibition
block of Mesd protein binding to LRP6 at the cell surface (LRP6; [15]): inhibition

mMesd (160–169): Mesd peptide based on the mouse Mesd C-terminal region sequence (EIKDFLVSQD; UniProt Q9ERE7 160-169, looked up, fragment)
concentration at which inhibitory ability on Mesd binding was displayed (LRP5; 125I-Mesd 5 nM): 50 µM
inhibitory concentration relative to that required for mMesd (155–191) (LRP5): 100 times
concentration at which inhibitory ability on Mesd binding was displayed (LRP6): 50 µM
inhibitory concentration relative to that required for mMesd (155–191) (LRP6): 100 times

mMesd (183–191): Mesd peptide based on the mouse Mesd C-terminal region sequence (GKGGGSKEK; UniProt Q9ERE7 183-191, looked up, fragment)
concentration at which inhibitory ability on Mesd binding was displayed (LRP5; 125I-Mesd 5 nM): 50 µM
inhibitory concentration relative to that required for mMesd (155–191) (LRP5): 100 times
concentration at which inhibitory ability on Mesd binding was displayed (LRP6): 50 µM
inhibitory concentration relative to that required for mMesd (155–191) (LRP6): 100 times

mMesd (155–191): shorter mouse Mesd C-terminal region peptide lacking 9 conserved terminal residues of mMesd (150–195) (GSYAWEIKDFLVSQDRCAEVTLEGQMYPGKGGGSKEK; UniProt Q9ERE7 155-191, looked up, fragment)
OPG expression induced by Rspo1 plus Wnt3A (OPG expression; C2C12, Rspo1 20 ng/ml, Wnt3A CM 2%, mMesd (155–191) 2 µM): repressed
Wnt3A-induced OPG expression (OPG expression; C2C12, Wnt3A CM 5%, peptide at indicated concentrations): able to suppress
TOPFlash activity induced by LRP5, LRP5 plus Wnt3A, LRP5 plus Rspo1 (Wnt/β-catenin signaling [12]): blocked
Wnt3A-induced endogenous LRP6 phosphorylation (LRP6 phosphorylation): able to suppress
TOPFlash activity induced by LRP6, LRP6 plus Wnt3A, LRP6 plus Rspo1 (Wnt/β-catenin signaling [13]): blocked
block of Mesd protein binding to LRP5 at the cell surface (LRP5; 125I-Mesd binding assay with LRP5-expressing cells): blocked
block of Mesd protein binding to LRP6 at the cell surface (LRP6; 500 nM peptide, Figure 1B, triple determinations): blocked

mMesd (155–164): Mesd peptide based on the mouse Mesd C-terminal region sequence
block of Mesd protein binding to LRP5 at the cell surface (LRP5; [14]): unable to block
block of Mesd protein binding to LRP6 at the cell surface (LRP6; [15]): unable to block

mMesd (174–191): Mesd peptide based on the mouse Mesd C-terminal region sequence (VTLEGQMYPGKGGGSKEK; UniProt Q9ERE7 174-191, looked up, fragment)
block of Mesd protein binding to LRP5 at the cell surface (LRP5; [14]): inhibition
block of Mesd protein binding to LRP6 at the cell surface (LRP6; [15]): inhibition
